From publication PMC11237694, “Novel pentafluorosulfanyl-containing triclocarban analogs selectively kill Gram-positive bacteria” (Microbiology Spectrum, 2024)
Values after ≈ are worked out from the molar mass of the structure shown. “Also recorded” adds a separate entry of the source. Read-outs that look alike come from different tables or passages of the source.

Experiments:
MRSA ATCC 33591 = test: Planktonic susceptibility (MIC/MBC), 96-well broth microdilution; assay type: cell-based, methicillin-resistant S. aureus; settings: for antibacterial efficacy (in words): MRSA spp.; for MBC / MIC: Staphylococcus aureus, MRSA reference strain; for MIC: planktonic, overnight 37°C in MHB
Description: All bacterial strains subjected to testing had been stored at −70°C prior to the experiment. The experiment commenced by streaking small amounts of the frozen bacterial samples onto Muller-Hinton agar (MHA) culture medium (BD Bacto, Oxoid, Basingstoke, UK Cat# X296B) and allowing for overnight incubation. Bacteria were re-cultured on MHA plates as required to confirm colony morphology and lack of contamination. Strains tested were P. aeruginosa ATCC 27853, E. coli ATCC 25922, Staphylococcus aureus ATCC 25923, MRSA ATCC 33591, S. epidermidis ATCC 12228, Klebsiella pneumoniae ATCC, P. mirabilis ATCC 35659, and 10 clinical isolates of MRSA from Foothills Hospital, Calgary, Canada. To prepare for susceptibility testing, a protocol modified from Lemire et al was used ([28]). MHB was swab-inoculated from MHA colonies and shake-incubated until turbid. Dilution of the broth with 0.9% saline was performed as necessary to match a 1.0 McFarland standard.
MIC and MBC assessments were conducted on all bacterial strains using 96-well microtiter plates. To prepare the wells for bacteria, serial dilutions of the antibacterial agents were carried out along the rows of two microtiter plates. The antibacterials were 2-fold diluted with Mueller-Hinton broth (MHB) in each column, reaching a volume of 75 µL. The 1.0 McFarland standard was diluted 15-fold in MHB, and 75 µL of inoculum was added to the wells treated with antibacterials, resulting in a total volume of 150 µL. The microtiter plates were covered and then shake-incubated overnight at 150 rpm and 37°C. MIC was determined based on visible bacterial growth. […] MBC was determined by transferring 3 µL of culture from all MIC microtiter plate wells to 147 µL of Mueller-Hinton broth in fresh plates. These plates were shake-incubated overnight at 150 rpm and 37°C, and bacterial growth was visually inspected.

MDCK cells = test: Eukaryotic cell toxicity, MTS assay (CC50); assay type: cell-based, canine; settings: for cytotoxicity level lower than that of EPB-34: MDCK cells; for CC50: MTS assay, 4 days, mean of 2 or 3 determinations, read-out: MDCK (CC50) in vitro cytotoxicity
Description: Five eukaryotic cell lines were used to determine the cytotoxicity of the compounds: human embryonic lung (HEL) fibroblast cells, human cervixcarinoma-derived HeLa cells, human T-cell leukemia-derived MT4 cells, MDCK cells, and African Green monkey kidney-derived VERO cells. Semi-confluent cell cultures in 96-well plates were exposed to serial dilutions of the compounds or to medium (= no compound control), then incubated at 37°C. Four days later, the cells were inspected by microscopy to determine the MCC, that is, compound concentration that causes a microscopically detectable alteration of normal cell morphology. Next, the MTS cell viability reagent (CellTiter 96 AQueous MTS Reagent from Promega) was added. After 4 hours of incubation at 37°C, OD at 490 nm was recorded in a microplate reader.

P. aeruginosa = test: Membrane permeability, propidium iodide staining; assay type: cell-based, Pseudomonas aeruginosa; settings: Gram-negative P. aeruginosa; MIC concentration, 1 hour
Description: (§1) For assessing membrane permeability, PI (Invitrogen, Eugene, Oregon, USA) served as the fluorescent reporter dye. Increased PI fluorescence readings are indicative of heightened membrane disruption and permeability, as PI can penetrate cells, bind to DNA, and remain within the cells ([29], [30]). Bacteria were cultured in 3 mL of Mueller-Hinton broth (MHB) and incubated at 37°C for approximately 3 hours in a shaker incubator (150 rpm) until reaching an OD600 (optical density) of 0.08. […] All treated and control groups were incubated at 37°C for 1 hour in a shaker incubator (150 rpm). Ciprofloxacin and gentamycin were employed as internal controls, as they are known not to target the bacterial cell membrane in the initial steps. After incubation, the samples were centrifuged, washed with PBS (10,000 × g for 2 minutes), and bacteria were stained with 0.08 mM PI for 5 minutes at 21°C in the dark. Subsequently, 10 µL of samples were transferred onto slides and examined under a fluorescence microscope (Zeiss Axio Imager Z1) using the same exposure time (640 ms red and 1 s green). Densitometry analysis was conducted using Fiji software (ImageJ).

MRSA = test: Membrane permeability, propidium iodide staining; assay type: cell-based, methicillin-resistant S. aureus; settings: Gram-positive MRSA; MIC concentration, 1 hour
Description: as §1

MRSA strain MW2 = test: Intravenous MRSA infection model in mice, CFU enumeration in organs; assay type: in vivo; settings: single i.p. injection 100 µl of 5 mM, 1 hour before or after i.v. infection with 5 × 10^7 CFU MW2; 24 hours
Description: Mice were infected systemically with the community-associated MRSA strain MW2 at an infectious dose of 5 × 10^7 colony-forming units (CFUs) as described ([26]). Treatment groups were injected intraperitoneally with the compound of interest 1 hour before or after infection, with a saline-injected control group. After 24 hours of infection, mice were sacrificed, and blood, peritoneal fluid, spleen, liver, kidney (left), heart, and lungs were harvested for CFU enumeration to determine the bacterial burden in these organs. […] Although disappointing, the lack of promising results in the single-dose treatments may have a variety of reasons, including rapid metabolism and excretion of the compounds by the liver, or the acknowledged intracellular aspect of S. aureus in its infectious cycle ([27]). […] Additionally, investigating the possibility of topical application for these components presents another viable option.
Animal experiments were performed with 6- to 10-week/old adult male mice. Mice were kept in a pathogen-free facility under standardized conditions: temperature of 21–22°C, illumination of 12-hour light–12-hour dark, and access to tap water and food. Experimental animal protocols were approved by the University of Calgary Animal Care Committee and followed the Canadian Council for Animal Care Guidelines.
MW2 Staphylococcus aureus was grown on brain heart infusion (BHI) agar plates (BD biosciences). A single colony was grown overnight in BHI medium (BD biosciences) at 37°C while shaking. Subcultures of […] of the overnight (ON) culture were grown in 3 mL of the same culture medium for 2 hours at 37°C while shaking to reach the exponential growth phase. Bacteria were brought to a concentration of OD660 1.0 in saline. […]
For assessing bacterial by CFU enumeration, the mice were anesthetized with isoflurane (Fresenius Kabi) and washed with 70% ethanol to collect blood and sacrificed to further collect liver, spleen, kidney (left), heart, and lungs. […] Cultures were counted, and CFUs were calculated taking the weight of the organ into account.

Structure (SMILES) | antibacterial efficacy (in words) (MRSA ATCC 33591) | MBC (MRSA ATCC 33591) [µM] | MIC (MRSA ATCC 33591) [µM] | cytotoxicity level lower than that of EPB-34 (MDCK cells) [logs] | CC50 (MDCK cells) [µM] | effect on cell membrane (PI staining) (P. aeruginosa) | cell membrane disruption (PI staining) (MRSA) | bacterial burden (CFU) in blood, spleen, liver, kidney, heart, lungs (MRSA strain MW2) | CC50 (MDCK cells; listed as EBP-61) [µM]
O=C(Nc1ccc(S(F)(F)(F)(F)F)cc1)Nc1ccc(Cl)c(Cl)c1 [EBP-59] | effective | 20 (≈ 8.14 µg/mL) | 2.4 (≈ 0.977 µg/mL) | 2 | > 100 | no effect | effective at cell membrane disruption | failed to reduce bacterial counts; also recorded: not significant | 
O=C(Nc1ccc(Cl)cc1)Nc1cccc(S(F)(F)(F)(F)F)c1 [EBP-62, 1-(4-chlorophenyl)-3-(3-(pentafluoro-λ^6-sulfanyl)phenyl)urea] | effective | 76 (≈ 28.3 µg/mL) | 38 (≈ 14.2 µg/mL) |  |  |  |  | failed to reduce bacterial counts; also recorded: not significant | 
O=C(Nc1ccc(Cl)cc1)Nc1ccc(S(F)(F)(F)(F)F)cc1 [EPB-61, 1-(4-Chlorophenyl)-3-(4-(pentafluoro-λ^6-sulfanyl)phenyl)urea] | effective | 300 (≈ 112 µg/mL) | 160 (≈ 59.6 µg/mL) | 2 |  | no effect | effective at cell membrane disruption | failed to reduce bacterial counts; also recorded: not significant | > 100
